From patent publication US9463192B2, “Trk-inhibiting compound” (ONO PHARMACEUTICAL CO., LTD., priority 2013, dated 2016)
Where two headings read alike, the source gives them in different places.

What was measured:
human TrkA = human TrkA (Homo sapiens (Human), UniProt P04629); assay: Measurement of TrkA kinase-inhibiting activity using human TrkA-expressing cells; format: cell-based; conditions: CHO-K1 cells expressing human TrkA and NFAT-bla; NGF 50 ng/ml; TR-FRET reporter
Method: TrkA kinase-inhibiting activity in cell systems was measured using CHO-K1 cells exressing human TrkA and NFAT-bla (CellSenser™ TrkA-NFAT-bla CHO-K1 cells, Invitrogen).
On the day before the assay, CellSenser™ TrkA-NFAT-bla CHO-K1 cells were suspended in an assay medium (Opti-MEM1 Reduced Serum Medium (Invitrogen) containing 0.5% dialysed fetal bovine serum (Invitrogen), 0.1 mM nonessential amino acids (Invitrogen), 1 mM sodium pyruvate (Invitrogen) and antibiotics (100 U/mL penicillin and 100 µg/mL streptomycin (Invitrogen))) and plated at a density of 2.4×10^4 cells/40 μL/well in a 96-well clear bottom plate (Corning, Catalogue No.: 3882). In some wells were added only the assay medium at 40 μL/well (Cell-free). On the day of the assay, 10 mM of the present compound (DMSO solution) was distributed in a 96-well plate (Costar, Catalogue No.: 3363) and serially diluted with DMSO with the geometrical ratio of 3. The serial dilutions were diluted with the assay medium to 100-fold to prepare a solution of the present compound with a 10-fold concentration (DMSO concentration: 1%). To the plate where cells were plated was added the present compound at 5 µL/well and the plate was incubated in a CO2 incubator with 5% CO2, 95% Air at 37° C. for 30 minutes. For a control and a blank, the assay medium containing 1% DMSO was added at 5 µL/well in place of the solution of the present compound. Subsequently the assay medium containing NGF (Mouse 2.5s, Natural, Invitrogen) was added to the plate at 5 µL/well (final concentration of NGF: 50 ng/ml) and the plate was incubated in a CO2 incubator with 5% CO2, 95% Air at 37° C. for 5 hours. For the blank group, the assay medium was added in place of NGF at 5 µL/well. A reporter assay detection reagent ([…]) was added to the plate which was then incubated in the dark at room temperature for 120 minutes. The reporter assay detection reagent was prepared from LiveBLAzer™-FRET B/G Loading Kit (Invitrogen). On the Analyst GT (Molecular Devices Japan, K.K.) the wells were irradiated with excitation light at 405 nm and the fluorescence intensities at 460 nm and 530 nm were measured. The time resolved fluorescence resonance energy transfer (TR-FRET) ratio of each well was calculated according to the following Equation 1: TR-FRET ratio=(A460x−A460F)/(A530x−A530F) [Eq. 1]
A460x: the fluorescence intensity at 460 nm of the present compound, control or blank;
A460F: the fluorescence intensity at 460 nm of the Cell-free;
A530x: the fluorescence intensity at 530 nm of the present compound, control or blank; and
A530x: the fluorescence intensity at 530 nm of the Cell-free.
The TR-FRET inhibition rate (%) of the present compound was calculated according to the following Equation 2: Inhibition rate (%)={1−(AX−AB)/(AC−AB)}×100 [Eq. 2]
wherein AX: the TR-FRET ratio when the present compound is added;
AB: the TR-FRET of the blank; and
AC: the TR-FRET of the control.
The IC50 value by the present compound was calculated from the inhibition curve based on the inhibition rate of the present compound at respective concentrations.

[1] = tested on: NGF-induced vascular hyper permeability; assay: Inhibition of rat NGF-induced vascular hyper permeability; format: in vivo; conditions: po, 1 mg/kg orally, read-out: Inhibition rate of vascular hyper permeability (%) (time after administration (h))
Method: TrkA-inhibiting activity of the present compound was evaluted in vivo. The present compound dissolved in a medium was orally administered (adminstered volume: 5 mL/kg) to male CD(SD)IGS rats (7- to 9-week old, Charles River laboratories Japan, Inc.) shaved on the back. A medium was orally administered (adminstered volume: 5 mL/kg) to the control and normal groups. After 6, 12 or 14 hours of administration, 3 μg/mL of a NGF (Mouse 2.5s, Natural, Invitrogen) solution prepared in 0.1% BSA (Sigma-Aldrich)-containing saline was intracutaneously administered (dose; 50 μL/site) at 3 sites on the back of animals under halothane anesthesia. For the normal group, 0.1% BSA-containing saline was intracutaneously administered (dose; […]) at 3 sites on the back. Immediately after intracutaneous administration, 1% Evans Blue (Tokyo Chemical Industriy Co., Ltd.) was administered intravenously from tail (adminstered volume: 3 mL/kg). After 10 minutes of administration, the animals were sacrificed by bleeding due to incision of the abdominal aorta. The sites of intracutaneous administration on the back (3 sites) were excised and the skin samples were respectively transferred to the wells in a 48-well plate (Asahi Glass Co., Ltd.). Formamide (0.8 mL/well) was added to the plate and the plate was sealed and incubated overnight at 60° C. The formamide extraction solution (200 μL) was transferred to a 96-well plate and the absorbance (wavelength: 620 nm) of Evans Blue extracted in formamide was measured on an absorbance microplate reader (SpectraMAX 190, Molecular Devices Japan, K.K.). Standard samples of Evans Blue dissolved in formamide (0, 0.78, 1.56, 3.13, 6.25, 12.5, 25 and 50 µg/mL) were measured at the same time for the absorance (wavelength: 620 nm) to generate a calibration curve. Based on the calibration curve and the absorbances of samples, the concentrations of Evans Blue in the sample was calculated. The concentrations of Evans Blue for three skin samples collected from one aminal were averaged to obtain the vale for the animal. The rate of inhibition for rat NGF-induced vascular hyper permeability of the present compound was calculated according to the following Equation: Inhibition rate (%)={1−(AX−AN)/(AC−AN)}×100 [Eq. 3]
wherein AX: the concentration of Evans Blue of the test compound (an average value of 3 samples from one animal);
AN: the concentration of Evans Blue of the normal group (an average value of 3 samples from one animal);
AC: the concentration of Evans Blue of the control group (an average value of 3 samples from one animal).

Chain of human TrkA (P04629 33-796): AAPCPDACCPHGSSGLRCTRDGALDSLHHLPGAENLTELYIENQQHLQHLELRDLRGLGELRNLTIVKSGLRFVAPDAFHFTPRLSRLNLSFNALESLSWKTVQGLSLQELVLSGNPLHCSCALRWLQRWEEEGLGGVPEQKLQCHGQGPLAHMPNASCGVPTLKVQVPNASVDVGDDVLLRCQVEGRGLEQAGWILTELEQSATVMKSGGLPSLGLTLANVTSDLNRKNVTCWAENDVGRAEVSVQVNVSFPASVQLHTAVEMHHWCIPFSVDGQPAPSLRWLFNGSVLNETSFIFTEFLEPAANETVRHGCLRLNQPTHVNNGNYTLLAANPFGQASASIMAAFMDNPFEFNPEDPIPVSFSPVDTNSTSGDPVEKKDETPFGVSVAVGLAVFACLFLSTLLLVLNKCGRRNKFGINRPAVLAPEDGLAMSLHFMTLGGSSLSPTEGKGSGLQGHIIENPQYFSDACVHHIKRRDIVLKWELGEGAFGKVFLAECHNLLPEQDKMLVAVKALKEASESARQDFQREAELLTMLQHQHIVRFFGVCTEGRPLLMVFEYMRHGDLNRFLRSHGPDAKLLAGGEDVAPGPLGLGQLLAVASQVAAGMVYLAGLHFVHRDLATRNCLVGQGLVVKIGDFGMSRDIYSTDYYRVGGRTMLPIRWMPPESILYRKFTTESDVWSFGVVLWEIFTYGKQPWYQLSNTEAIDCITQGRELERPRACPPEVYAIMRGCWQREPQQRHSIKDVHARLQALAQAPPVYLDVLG

IC50 (human TrkA) [µM]	Structure (SMILES)	inhibition in vivo at 1 mg/kg ([1]; 14 h after administration) [%]	inhibition in vivo at 1 mg/kg ([1]; 12 h after administration) [%]
0.001	Nc1ncc(Cl)cc1-c1ccc(Oc2ncc(NC(=O)Nc3cc(C(F)(F)F)ccc3-n3cccn3)cn2)cc1 [Example 7, 1-(2-(1H-pyrazol-1-yl)-5-(trifluoromethyl)phenyl)-3-(2-(4-(2-amino-5-chloropyridin-3-yl)phenoxy)pyrimidin-5-yl)urea]	97	
0.001	Cc1cn(-c2ccc(C(F)(F)F)cc2NC(=O)Nc2cnc(Oc3ccc(-c4cc(Cl)cnc4N)cc3)nc2)nn1 [Example 8-1, 1-(2-(4-(2-amino-5-chloropyridin-3-yl)phenoxy)pyrimidin-5-yl)-3-(2-(4-methyl-1H-1,2,3-triazol-1-yl)-5-(trifluoromethyl)phenyl)urea]	94	
0.002	Nc1ncc(Cl)cc1-c1ccc(Oc2ncc(NC(=O)Nc3cc(C(F)(F)F)ccc3-n3ccc(C(F)(F)F)n3)cn2)cc1 [Example 8-2, 1-(2-(4-(2-amino-5-chloropyridin-3-yl)phenoxy)pyrimidin-5-yl)-3-(5-(trifluoromethyl)-2-(3-(trifluoromethyl)-1H-pyrazol-1-yl)phenyl)urea]	100	
0.001	Nc1ncc(Cl)cc1-c1ccc(Oc2ncc(NC(=O)Nc3cc(C(F)(F)F)ccc3Cl)cn2)cc1 [Example 8-4, 1-(2-(4-(2-amino-5-chloropyridin-3-yl)phenoxy)pyrimidin-5-yl)-3-(2-chloro-5-(trifluoromethyl)phenyl)urea]	96	
0.003	Nc1ncc(Cl)cc1-c1ccc(Oc2ccc(NC(=O)Nc3cc(C(F)(F)F)ccc3-n3cccn3)cn2)cc1 [Example 9-1]	86	
0.001	Nc1ncc(Cl)cc1-c1ccc(Oc2ccc(NC(=O)Nc3cc(C(F)(F)F)ccc3-n3ccnn3)cn2)cc1 [Example 9-2]	100	
0.001	Nc1ncc(Cl)cc1-c1ccc(Oc2ccc(NC(=O)Nc3cc(C(F)(F)F)ccc3-c3cccnc3)cn2)cc1 [Example 11, 1-(6-(4-(2-amino-5-chloropyridin-3-yl)phenoxy)pyridin-3-yl)-3-(2-(pyridin-3-yl)-5-(trifluoromethyl)phenyl)urea]	100	
0.002	Cn1nccc1-c1ccc(C(F)(F)F)cc1NC(=O)Nc1cnc(Oc2ccc(-c3cc(Cl)cnc3N)cc2)nc1 [Example 13-1, 1-(2-(4-(2-amino-5-chloropyridin-3-yl)phenoxy)pyrimidin-5-yl)-3-(2-(1-methyl-1H-pyrazol-5-yl)-5-(trifluoromethyl)phenyl)urea]	100	
0.001	Nc1ncc(F)cc1-c1ccc(Oc2ncc(NC(=O)Nc3cc(C(F)(F)F)ccc3-n3ccnn3)cn2)cc1 [Example 14-5, 1-(2-(1H-1,2,3-triazol-1-yl)-5-(trifluoromethyl)phenyl)-3-(2-(4-(2-amino-5-fluoropyridin-3-yl)phenoxy)pyrimidin-5-yl)urea]	93	
0.001	Nc1ncc(F)cc1-c1ccc(Oc2ncc(NC(=O)Nc3cc(C(F)(F)F)ccc3-c3cccnc3)cn2)cc1 [Example 14-6, 1-(2-(4-(2-amino-5-fluoropyridin-3-yl)phenoxy)pyrimidin-5-yl)-3-(2-(pyridin-3-yl)-5-(trifluoromethyl)phenyl)urea]		78
0.001	Nc1ncc(Cl)cc1-c1ccc(Oc2ncc(NC(=O)Nc3ccc(C(F)(F)F)cc3-n3cccn3)cn2)cc1 [Example 15-4, 1-(2-(1H-pyrazol-1-yl)-4-(trifluoromethyl)phenyl)-3-(2-(4-(2-amino-5-chloropyridin-3-yl)phenoxy)pyrimidin-5-yl)urea]	100	
0.003	Nc1ncc(Cl)cc1-c1ccc(Oc2ncc(NC(=O)Nc3ccc(C(F)(F)F)cc3F)cn2)cc1 [Example 15-5, 1-(2-(4-(2-amino-5-chloropyridin-3-yl)phenoxy)pyrimidin-5-yl)-3-(2-fluoro-4-(trifluoromethyl)phenyl)urea]	92	
0.002	Nc1ncc(Cl)cc1-c1ccc(Oc2ncc(NC(=O)Nc3ccc(C(F)(F)F)cc3Cl)cn2)cc1 [Example 15-6, 1-(2-(4-(2-amino-5-chloropyridin-3-yl)phenoxy)pyrimidin-5-yl)-3-(2-chloro-4-(trifluoromethyl)phenyl)urea]	95	
0.001	O=C(Nc1cnc(Oc2ccc(-c3cnc4ccccn34)cc2)nc1)Nc1cc(C(F)(F)F)ccc1-n1cccn1 [Example 23-3, 1-(2-(1H-pyrazol-1-yl)-5-(trifluoromethyl)phenyl)-3-(2-(4-(imidazo[1,2-a]pyridin-3-yl)phenoxy)pyrimidin-5-yl)urea]		
0.002	O=C(Nc1cnc(Oc2ccc(-c3cnc4[nH]ccc4c3)cc2)nc1)Nc1cc(C(F)(F)F)ccc1-c1cccnc1 [Example 23-7, 1-(2-(4-(1H-pyrrolo[2,3-b]pyridin-5-yl)phenoxy)pyrimidin-5-yl)-3-(2-(pyridin-3-yl)-5-(trifluoromethyl)phenyl)urea]		
0.001	O=C(Nc1cnc(Oc2ccc(-c3cnc4cnccn34)cc2)nc1)Nc1cc(C(F)(F)F)ccc1-c1cccnc1 [Example 23-10, 1-(2-(4-(imidazo[1,2-a]pyrazin-3-yl)phenoxy)pyrimidin-5-yl)-3-(2-(pyridin-3-yl)-5-(trifluoromethyl)phenyl)urea]		
0.001	O=C(Nc1cnc(Oc2ccc(-c3cnn4ccccc34)cc2)nc1)Nc1cc(C(F)(F)F)ccc1-c1cccnc1 [Example 23-11, 1-(2-(4-(pyrazolo[1,5-a]pyridin-3-yl)phenoxy)pyrimidin-5-yl)-3-(2-(pyridin-3-yl)-5-(trifluoromethyl)phenyl)urea]		
0.001	O=C(Nc1cnc(Oc2ccc(-c3cnc4[nH]ncc4c3)cc2)nc1)Nc1cc(C(F)(F)F)ccc1-c1cccnc1 [Example 23-12, 1-(2-(4-(1H-pyrazolo[3,4-b]pyridin-5-yl)phenoxy)pyrimidin-5-yl)-3-(2-(pyridin-3-yl)-5-(trifluoromethyl)phenyl)urea]		
